The source of these data is publication PMC3259201 (European Journal of Medicinal Chemistry, 2011).

“Also recorded” adds a separate entry of the source.

The test deals with HIV-1 NL4-3 strain. Briefly: HIV-1 infectivity assay, single cycle infection of TZM-bl cells. In kind it is cell-based. The note with it: wild-type HIV-1 NL4-3 strain.

For the compound `CC1(C)Oc2cc(O)c3c(=O)c4ccccc4oc3c2[C@@H](OC(=O)[C@@]23CCC(C)(C(=O)O2)C3(C)C)[C@H]1OC(=O)[C@@]12CCC(C)(C(=O)O1)C2(C)C` [Compound 9, 1R,2R-(-)-Dicamphanoyl-3,3-dimethyl-6-hydroxy-1,2-dihydropyrano[2,3-c]xanthen-7(1H)-one], the “anti-HIV activity (in words)” value is “did not show notable activity or selectivity; also recorded: did not exhibit anti-HIV activity”.

For the compound `COc1cc2c(c3oc4c(C)cccc4c(=O)c13)[C@@H](OC(=O)C13CCC(C)(C(=O)O1)C3(C)C)[C@@H](OC(=O)C13CCC(C)(C(=O)O1)C3(C)C)C(C)(C)O2` (stereo partly drawn) [Compound 10, 1R,2R-(-)-Dicamphanoyl-3,3,11-trimethyl-6-methoxy-1,2-dihydropyrano[2,3-c]xanthen-7(1H)-one], the “anti-HIV activity (in words)” value was “almost inactive”.

Take `COc1cccc2c(=O)c3c(OC)cc4c(c3oc12)[C@@H](OC(=O)[C@@]12CCC(C)(C(=O)O1)C2(C)C)[C@@H](OC(=O)[C@@]12CCC(C)(C(=O)O1)C2(C)C)C(C)(C)O4` [Compound 14, 1R,2R-(-)-Dicamphanoyl-3,3-dimethyl-6,11-dimethoxy-1,2-dihydropyrano[2,3-c]xanthen-7(1H)-one]: the “anti-HIV activity (in words)” value is “no detectable anti-HIV activity or selectivity”.
